Measurements: patent publication US12077503B2, “Substituted cyclic amides and their use as herbicides” (FMC CORPORATION, priority 2015, dated 2024)

Experiments:
Type in all cases: in vivo
[1] = system: giant foxtail (Setaria faberii); assay: Test A preemergence; settings: Preemergence; for Plant response rating, Foxtail, Giant: 125 g ai/ha, visual injury after approximately 10 d, 0 to 100 scale where 0 is no effect and 100 is complete control; for Foxtail, Giant plant response rating (0 to 100 scale, 0 is no effect, 100 is complete control): 500 g ai/ha, visual injury approx. 10 d
Excerpt: (§1) Seeds of plant species selected from barnyardgrass (Echinochloa crus-galli), Kochia (Kochia scoparia), ragweed (common ragweed, Ambrosia elatior), ryegrass, Italian (Italian ryegrass, Lolium multiflorum), crabgrass, large (Digitaria sanguinalis), giant foxtail (Setaria faberii), green foxtail (Setaria viridis), morningglory (Ipomoea spp.), pigweed (Amaranthus retroflexus), velvetleaf (Abutilon theophrasti), wheat (Triticum aestivum), and corn (Zea mays) were planted into a blend of loam soil and sand and treated preemergence with a directed soil spray using test chemicals formulated in anon-phytotoxic solvent mixture which included a surfactant.
(§2) At the same time, plants selected from these crop and weed species and also blackgrass (Alopecurus myosuroides), and Galium (catchweed bedstraw, Galium aparine) were planted in pots containing the same blend of loam soil and sand and treated with postemergence applications of test chemicals formulated in the same manner. Plants ranged in height from 2 to 10 cm and were in the one- to two-leaf stage for the postemergence treatment. Treated plants and untreated controls were maintained in a greenhouse for approximately 10 d, after which time all treated plants were compared to untreated controls and visually evaluated for injury. Plant response ratings, summarized in Table A, are based on a 0 to 100 scale where 0 is no effect and 100 is complete control. A dash (-) response means no test result.

Kochia (Kochia scoparia) [2] = assay: Test A preemergence; settings: Preemergence; for Plant response rating, Kochia: 125 g ai/ha, visual injury after approximately 10 d, 0 to 100 scale where 0 is no effect and 100 is complete control; for Kochia plant response rating (0 to 100 scale, 0 is no effect, 100 is complete control): 500 g ai/ha, visual injury approx. 10 d
Excerpt: as §1, §2

[3] = system: barnyardgrass (Echinochloa crus-galli); assay: Test A preemergence; settings: Preemergence; for Plant response rating, Barnyardgrass: 125 g ai/ha, visual injury after approximately 10 d, 0 to 100 scale where 0 is no effect and 100 is complete control; for Barnyardgrass plant response rating (0 to 100 scale, 0 is no effect, 100 is complete control): 500 g ai/ha, visual injury approx. 10 d
Excerpt: as §1, §2

[4] = system: pigweed (Amaranthus retroflexus); assay: Test A preemergence; settings: Preemergence; for Plant response rating, Pigweed: 125 g ai/ha, visual injury after approximately 10 d, 0 to 100 scale where 0 is no effect and 100 is complete control; for Pigweed plant response rating (0 to 100 scale, 0 is no effect, 100 is complete control): 500 g ai/ha, visual injury approx. 10 d
Excerpt: as §1, §2

[5] = system: ryegrass, Italian (Italian ryegrass, Lolium multiflorum); assay: Test A preemergence; settings: Preemergence; for Plant response rating, Ryegrass, Italian: 125 g ai/ha, visual injury after approximately 10 d, 0 to 100 scale where 0 is no effect and 100 is complete control; for Ryegrass, Italian plant response rating (0 to 100 scale, 0 is no effect, 100 is complete control): 500 g ai/ha, visual injury approx. 10 d
Excerpt: as §1, §2

[6] = system: ragweed (common ragweed, Ambrosia elatior); assay: Test A preemergence; settings: Preemergence; for Plant response rating, Ragweed: 125 g ai/ha, visual injury after approximately 10 d, 0 to 100 scale where 0 is no effect and 100 is complete control; for Ragweed plant response rating (0 to 100 scale, 0 is no effect, 100 is complete control): 500 g ai/ha, visual injury approx. 10 d
Excerpt: as §1, §2

[7] = system: giant foxtail (Setaria faberii); assay: Test A postemergence
Excerpt: as §1, §2

Kochia (Kochia scoparia) [8] = assay: Test A postemergence
Excerpt: as §1, §2

[9] = system: barnyardgrass (Echinochloa crus-galli); assay: Test A postemergence
Excerpt: as §1, §2

[10] = system: blackgrass (Alopecurus myosuroides); assay: Test A postemergence
Excerpt: as §1, §2

[11] = system: pigweed (Amaranthus retroflexus); assay: Test A postemergence
Excerpt: as §1, §2

[12] = system: ryegrass, Italian (Italian ryegrass, Lolium multiflorum); assay: Test A postemergence
Excerpt: as §1, §2

[13] = system: ragweed (common ragweed, Ambrosia elatior); assay: Test A postemergence
Excerpt: as §1, §2

corn (Zea mays) = assay: Test A postemergence
Excerpt: as §1, §2

[14] = system: wheat (Triticum aestivum); assay: Test A postemergence
Excerpt: as §1, §2

[15] = system: Galium (catchweed bedstraw, Galium aparine); assay: Test A postemergence
Excerpt: as §1, §2

[16] = 125 g ai/ha, postemergence, visual rating after approx. 10 d, 0 to 100 scale (0 no effect, 100 complete control)
[17] = Postemergence, 500 g ai/ha, 0 to 100 scale where 0 is no effect and 100 is complete control
[18] = 125 g ai/ha, postemergence, visual injury rating on 0 to 100 scale (0 no effect, 100 complete control), approx. 10 d

Structure (SMILES) | Plant response rating, Foxtail, Giant [1] | Foxtail, Giant plant response rating (0 to 100 scale, 0 is no effect, 100 is complete control) [1] | Plant response rating, Kochia (Kochia (Kochia scoparia) [2]) | Kochia plant response rating (0 to 100 scale, 0 is no effect, 100 is complete control) (Kochia (Kochia scoparia) [2]) | Plant response rating, Barnyardgrass [3] | Barnyardgrass plant response rating (0 to 100 scale, 0 is no effect, 100 is complete control) [3] | Plant response rating, Pigweed [4] | Pigweed plant response rating (0 to 100 scale, 0 is no effect, 100 is complete control) [4] | Plant response rating, Ryegrass, Italian [5] | Ryegrass, Italian plant response rating (0 to 100 scale, 0 is no effect, 100 is complete control) [5] | Plant response rating, Ragweed [6] | Ragweed plant response rating (0 to 100 scale, 0 is no effect, 100 is complete control) [6] | Plant response rating, Foxtail, Giant [7, 17] | Plant response rating, Kochia (Kochia (Kochia scoparia) [8]; [17]) | Plant response rating, Barnyardgrass [9, 17] | Plant response rating, Blackgrass [10, 17] | Plant response rating, Pigweed [11, 17] | Plant response rating, Ryegrass, Italian [12, 17] | Plant response rating, Ragweed [13, 17] | Plant response rating, Corn (corn (Zea mays); [17]) | also measured
CCc1cccc(C2CN(C)C(=O)C2C(=O)Nc2ccccc2F)c1 (stereo not shown) [Compound 567] | 100 | 100 | 60 | 80 | 100 | 100 | 20 | 40 | 60 | 80 | 50 | 60 | 90 | 50 | 100 | 80 | 20 | 70 | 0 | 90 | Plant response rating, Foxtail, Giant [7, 16]: 90; Plant response rating, Kochia (Kochia (Kochia scoparia) [8]; [16]): 20; Plant response rating, Barnyardgrass [9, 16]: 90; Plant response rating, Blackgrass [10, 16]: 60; Plant response rating, Pigweed [11, 16]: 20; Plant response rating, Ryegrass, Italian [12, 16]: 70; Plant response rating, Ragweed [13, 16]: 0; Plant response rating, Corn (corn (Zea mays); [16]): 70; Plant response rating, Wheat [14, 16]: 30; Plant response rating, Wheat [14, 17]: 60; Plant response rating, Galium [15, 16]: 40; Plant response rating, Galium [15, 17]: 50
O=C(Nc1ccccc1F)C1C(=O)N(C2C=CCCC2)CC1c1cccc(C(F)(F)F)c1 (stereo not shown) [Compound 524] | 40 | 70 | 0 | 0 | 20 | 40 | 0 | 0 | 0 | 0 | 0 | 0 | 70 | 0 | 70 | 20 | 0 | 0 | 0 | 0 | Foxtail, Giant plant response rating [7, 18]: 30; Kochia plant response rating (Kochia (Kochia scoparia) [8]; [18]): 0; Barnyardgrass plant response rating [9, 18]: 30; Blackgrass plant response rating [10, 18]: 0; Pigweed plant response rating [11, 18]: 0; Ryegrass, Italian plant response rating [12, 18]: 0; Ragweed plant response rating [13, 18]: 0; Corn plant response rating (corn (Zea mays); [18]): 0; Wheat plant response rating [14, 18]: 0; Plant response rating, Wheat [14, 17]: 0; Galium plant response rating [15, 18]: 0; Plant response rating, Galium [15, 17]: 0
